The record followed here is US20240043435A1, “TYK-2 INHIBITOR” (BEIGENE, LTD., priority 2020, published 2024).

Structures are written as SMILES. pIC50: −log10 of the molar value.

One test relates to pSTAT5/GM-CSF. Description: pSTAT5/GM-CSF cellular assay (JAK2 selectivity). It is filed as cell-based. The conditions noted are these: for Selectivity fold (TYK2/JAK2): pSTAT5/GM-CSF IC50 over pSTAT4/IL-12 IC50.
The test system of test [1] is JAK2, TYK2/p-STAT4 (Tyr693) activated by IL-12 in NK-92 cell line. Description: IL-12-JAK2, TYK2/p-STAT4 (Tyr693) inhibition IC50 cellular assay. It is filed as cell-based. The conditions noted are these: for Selectivity fold (TYK2/JAK2): Cellular assay, pSTAT5/GM-CSF IC50 vs pSTAT4/IL-12 IC50; for pIC50: NK92, Cellular assay, read-out: pSTAT4/IL-12 IC50. Summed up: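 NK-92 cells were starved overnight without IL-2 and preincubated 1 h at 37° C with compound (8 doses, 10000–0.61 nM, 4-fold, 0.2% DMSO). They were then stimulated with IL-12 (40 ng/ml final) for 30 min. Lysate p-STAT4 (Tyr693) was read by AlphaLISA SureFire; IC50 from four-parameter logistic fit.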

The target in test [2] is T1, TYK2-JH2 (aa 575-869, in-house) protein (Homo sapiens, UniProt P29597).
T1 construct: TYK2-JH2 (aa 575-869, in-house) protein; made in house
T1 sequence (P29597 575-869): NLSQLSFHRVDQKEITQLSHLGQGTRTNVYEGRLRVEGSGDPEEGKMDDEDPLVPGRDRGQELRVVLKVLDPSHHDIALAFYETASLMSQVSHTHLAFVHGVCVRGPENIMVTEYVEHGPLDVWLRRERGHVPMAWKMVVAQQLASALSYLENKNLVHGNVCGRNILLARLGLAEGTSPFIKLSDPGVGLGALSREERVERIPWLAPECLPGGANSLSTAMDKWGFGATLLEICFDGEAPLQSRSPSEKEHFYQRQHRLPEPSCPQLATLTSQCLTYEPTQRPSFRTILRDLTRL
Description: TYK2-JH2 biochemical assay (HTRF probe displacement). It is filed as binding. As to conditions: Biochemical assay; read-out: TYK2-JH2 IC50. Summed up:
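Recombinant TYK2-JH2 (0.2 nM) was pre-incubated 0.5 h at room temperature with compounds (10 doses, 5-fold dilution; 500× DMSO stocks from 500 uM) in 20 mM HEPES pH 7.5, 10 mM MgCl2, 0.005% BSA, 2 mM DTT, 0.015% Brij-35. Probe displacement was read by HTRF (ex337, em620/665 nm); IC50 from four-parameter logistic fit.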

Take `CC(=O)Nc1cc(Nc2cc(O[C@H]3C[C@@H](O)C3)cc(S(C)(=O)=O)n2)c(-c2ccc(C(C)(C)O)cn2)cn1` [Example H28, N-(4′-((4-(cis-3-hydroxycyclobutoxy)-6-(methylsulfonyl)pyridin-2-yl)amino)-5-(2-hydroxypropan-2-yl)-[2,3′-bipyridin]-6′-yl)acetamide]: the pIC50 in the test on pSTAT5/GM-CSF is under 5.00; in test [1] it was 7.53; in test [2] it was 10.52. For the same compound, in test [1], the “Selectivity fold (TYK2/JAK2)” value is recorded as over 342 fold.

Turning to `CC(=O)Nc1cc(Nc2cc(C(F)F)cc(S(C)(=O)=O)n2)c(-c2ccn(C)n2)cn1` [Example J42, N-(4-((4-(difluoromethyl)-6-(methylsulfonyl)pyridin-2-yl)amino)-5-(1-methyl-1H-pyrazol-3-yl)pyridin-2-yl)acetamide], the values for the pIC50 (with pSTAT5/GM-CSF; in test [1]; in test [2]) were under 5.00, 9.10 and 10.30, respectively. Besides, the “Selectivity fold (TYK2/JAK2)” value in the test with pSTAT5/GM-CSF is on record as over 12562 fold.

Take `CC(=O)Nc1cc(Nc2cc(C)cc(S(C)(=O)=O)n2)c(-c2cc3c(cn2)OCCO3)cn1` [Example Q18, N-(5-(2,3-dihydro-[1,4]dioxino[2,3-c]pyridin-7-yl)-4-((4-methyl-6-(methylsulfonyl)pyridin-2-yl)amino)pyridin-2-yl)acetamide]: the pIC50 in the test on pSTAT5/GM-CSF was under 5.00; in test [1], 9.04; in test [2], 10.64. Also, in the test on pSTAT5/GM-CSF, the “Selectivity fold (TYK2/JAK2)” value is reported as over 10989 fold.

`COCCOc1cc(Nc2cc(NC(C)=O)ncc2-c2cc(C)n(C)n2)nc(S(C)(=O)=O)c1` [Example N5, N-(5-(1,5-dimethyl-1H-pyrazol-3-yl)-4-((4-(2-methoxyethoxy)-6-(methylsulfonyl)pyridin-2-yl)amino)pyridin-2-yl)acetamide]: the figures for the pIC50 (with pSTAT5/GM-CSF; in test [1]; in test [2]) were under 5.00, 9.67 and 10.41, respectively. The “Selectivity fold (TYK2/JAK2)” value in the test on pSTAT5/GM-CSF is given as over 47169 fold.

For `CC(=O)Nc1cc(Nc2cccc(S(N)(=O)=O)n2)c(-c2ccn(C)n2)cn1` [Example J4, N-(5-(1-methyl-1H-pyrazol-3-yl)-4-((6-sulfamoylpyridin-2-yl)amino)pyridin-2-yl)acetamide], the pIC50 in the test with pSTAT5/GM-CSF was under 5.00; in test [1], 8.31; in test [2], 10.55. For the same compound, in the test with pSTAT5/GM-CSF, the “Selectivity fold (TYK2/JAK2)” value was over 2024 fold.

`COCCOc1ccc(-c2cnc(NC(C)=O)cc2Nc2cc(C(F)(F)F)cc(S(C)(=O)=O)c2)nc1` [Example D3, N-(5-(2-methoxyethoxy)-4′-((3-(methylsulfonyl)-5-(trifluoromethyl)phenyl)amino)-[2,3′-bipyridin]-6′-yl)acetamide]: the pIC50 in the test with pSTAT5/GM-CSF is under 5.00; in test [1] it was 8.32; in test [2], 10.10. In addition, in test [1], the “Selectivity fold (TYK2/JAK2)” value was over 2083 fold.

Regarding `CC(=O)Nc1cc(Nc2nc(S(C)(=O)=O)ccc2C)c(-c2ccc(C(C)(C)O)cn2)cn1` [Example H32, N-(5-(2-hydroxypropan-2-yl)-4′-((3-methyl-6-(methylsulfonyl)pyridin-2-yl)amino)-[2,3′-bipyridin]-6′-yl)acetamide], the pIC50 was under 5.00 with pSTAT5/GM-CSF, 9.35 in test [1] and 10.64 in test [2]. Besides, the “Selectivity fold (TYK2/JAK2)” value in test [1] is reported as over 22371 fold.

Consider `CC(=O)Nc1cc(Nc2cc(C(F)(F)F)cc(S(C)(=O)=O)c2)c(-c2ccn(C(C)C)n2)cn1` [Example M25, N-(5-(1-isopropyl-1H-pyrazol-3-yl)-4-((3-(methylsulfonyl)-5-(trifluoromethyl)phenyl)amino)pyridin-2-yl)acetamide], for which the pIC50 in the test with pSTAT5/GM-CSF was under 5.00; in test [1] it was 7.82; in test [2] it was 10.02. Also, the “Selectivity fold (TYK2/JAK2)” value in the test on pSTAT5/GM-CSF was over 659 fold.

`CC(=O)Nc1cc(Nc2cc(C)cc(S(C)(=O)=O)n2)c(-c2ccc(C(F)(F)F)cn2)cn1` [Example F1, N-(4′-((4-methyl-6-(methylsulfonyl)pyridin-2-yl)amino)-5-(trifluoromethyl)-[2,3′-bipyridin]-6′-yl)acetamide]: the values for the pIC50 (with pSTAT5/GM-CSF; in test [1]; in test [2]) were under 5.00, 8.91 and 10.34, respectively. The “Selectivity fold (TYK2/JAK2)” value in test [1] was over 8130 fold.

In the case of `COc1ccncc1-c1cc(Nc2cc(NC(C)=O)ncc2-c2ccc3c(n2)OCC(C)(C)O3)nc(S(C)(=O)=O)c1` [Example Q101, N-(5-(2,2-dimethyl-2,3-dihydro-[1,4]dioxino[2,3-b]pyridin-6-yl)-4-((4-methoxy-6′-(methylsulfonyl)-[3,4′-bipyridin]-2′-yl)amino)pyridin-2-yl)acetamide], the pIC50 with pSTAT5/GM-CSF is 6.43; in test [1], 9.04; in test [2], 10.52. Further, in the test on pSTAT5/GM-CSF, the “Selectivity fold (TYK2/JAK2)” value is reported as 412 fold.

On to `COCc1ccc(-c2cnc(NC(C)=O)cc2Nc2cc(OC[C@@H](C)OC)cc(S(C)(=O)=O)n2)nc1` [Example E3, (R)-N-(5-(methoxymethyl)-4′-((4-(2-methoxypropoxy)-6-(methylsulfonyl)pyridin-2-yl)amino)-[2,3′-bipyridin]-6′-yl)acetamide], for which the pIC50 with pSTAT5/GM-CSF is under 5.00; in test [1], 9.19; in test [2], 10.46. Moreover, in test [1], the “Selectivity fold (TYK2/JAK2)” value was over 15503 fold.

For `CC(=O)Nc1cc(Nc2cc(OC(C)C)cc(S(C)(=O)=O)n2)c(-c2ccc3c(n2)OCO3)cn1` [Example Q2, N-(5-([1,3]dioxolo[4,5-b]pyridin-5-yl)-4-((4-isopropoxy-6-(methylsulfonyl)pyridin-2-yl)amino)pyridin-2-yl)acetamide], the pIC50 is under 5.00 in the test on pSTAT5/GM-CSF, 8.77 in test [1] and 10.68 in test [2]. For the same compound, the “Selectivity fold (TYK2/JAK2)” value in the test with pSTAT5/GM-CSF is listed as over 5882 fold.

Take `CC(=O)Nc1cc(Nc2cc(C)cc(S(C)(=O)=O)n2)c(-c2cc3n(n2)CCOC3)cn1` [Example Q20, N-(5-(6,7-dihydro-4H-pyrazolo[5,1-c][1,4]oxazin-2-yl)-4-((4-methyl-6-(methylsulfonyl)pyridin-2-yl)amino)pyridin-2-yl)acetamide]: the pIC50 in the test with pSTAT5/GM-CSF was 5.75; in test [1], 9.80; in test [2], 10.66. In addition, the “Selectivity fold (TYK2/JAK2)” value in the test with pSTAT5/GM-CSF came to 11043 fold.

In the case of `CC(=O)Nc1cc(Nc2cc(C(F)F)cc(S(C)(=O)=O)c2)c(-c2ccc(C(C)(C)O)cn2)cn1` [Example H25, N-(4′-((3-(difluoromethyl)-5-(methylsulfonyl)phenyl)amino)-5-(2-hydroxypropan-2-yl)-[2,3′-bipyridin]-6′-yl)acetamide], the results for the pIC50 (in the test on pSTAT5/GM-CSF; in test [1]; in test [2]) were under 5.00, 8.12 and 10.42, respectively. Further, the “Selectivity fold (TYK2/JAK2)” value in test [1] is given as over 1328 fold.

On to `COCCn1ccc(-c2cnc(NC(C)=O)cc2Nc2cc(C)cc(S(C)(=O)=O)n2)n1` [Example A15, N-(5-(1-(2-methoxyethyl)-1H-pyrazol-3-yl)-4-((4-methyl-6-(methylsulfonyl)pyridin-2-yl)amino)pyridin-2-yl)acetamide], for which the pIC50 is 5.46 in the test on pSTAT5/GM-CSF, 9.16 in test [1] and 10.40 in test [2]. In addition, in test [1], the “Selectivity fold (TYK2/JAK2)” value came to 5039 fold.

For the compound `CO[C@H]1CCCN(c2cc(Nc3cc(NC(C)=O)ncc3-c3ccc4c(n3)OCC(C)(C)O4)nc(S(C)(=O)=O)c2)C1` [Example Q65, (S)-N-(5-(2,2-dimethyl-2,3-dihydro-[1,4]dioxino[2,3-b]pyridin-6-yl)-4-((4-(3-methoxypiperidin-1-yl)-6-(methylsulfonyl)pyridin-2-yl)amino)pyridin-2-yl)acetamide], the pIC50 is 5.78 in the test with pSTAT5/GM-CSF, 9.16 in test [1] and 10.54 in test [2]. For the same compound, in the test on pSTAT5/GM-CSF, the “Selectivity fold (TYK2/JAK2)” value worked out at 2397 fold.

For `CC(=O)Nc1cc(Nc2cc(OC[C@@H](C)O)cc(S(C)(=O)=O)n2)c(-c2ccn(C)n2)cn1` [Example J47, (R)-N-(4-((4-(2-hydroxypropoxy)-6-(methylsulfonyl)pyridin-2-yl)amino)-5-(1-methyl-1H-pyrazol-3-yl)pyridin-2-yl)acetamide], the figures for the pIC50 (in the test with pSTAT5/GM-CSF; in test [1]; in test [2]) were under 5.00, 8.33 and 10.43, respectively. The “Selectivity fold (TYK2/JAK2)” value in the test on pSTAT5/GM-CSF is over 2114 fold.

As for `COc1cc(Nc2cc(NC(C)=O)ncc2-c2ccc(N3C[C@@H](C)O[C@@H](C)C3)cn2)nc(S(C)(=O)=O)c1` [Example C9, N-(5-(cis-2,6-dimethylmorpholino)-4′-((4-methoxy-6-(methylsulfonyl)pyridin-2-yl)amino)-[2,3′-bipyridin]-6′-yl)acetamide], the pIC50 with pSTAT5/GM-CSF was under 5.00; in test [1], 9.17; in test [2], 10.57. The “Selectivity fold (TYK2/JAK2)” value in test [1] is over 14880 fold.

Turning to `CC(=O)Nc1cc(Nc2cc(C3CC3)cc(S(C)(=O)=O)n2)c(-c2ccc(F)cn2)cn1` [Example F25, N-(4′-((4-cyclopropyl-6-(methylsulfonyl)pyridin-2-yl)amino)-5-fluoro-[2,3′-bipyridin]-6′-yl)acetamide], the pIC50 is under 5.00 in the test with pSTAT5/GM-CSF, 9.35 in test [1] and 10.54 in test [2]. In addition, in test [1], the “Selectivity fold (TYK2/JAK2)” value is reported as over 22421 fold.
